This note sets out measurements from patent publication US7943618B2, “Btk protein kinase inhibitors” (Roche Palo Alto LLC, priority 2007, dated 2011).

Each structure is given as a SMILES string. Where only a bound is given, the exact number is not on record here.

Series [1] has as its target T1, Btk enzyme (His-tagged, full-length) (Homo sapiens, UniProt Q06187).
T1 construct: 5-10 nM Btk enzyme (His-tagged, full-length); His
The experiment in a line: Bruton's Tyrosine Kinase (Btk) Inhibition Assay (33P filtration capture). The class given is biochemical. Conditions: Bruton's tyrosine kinase Assay (Example 34), 100 μM ATP. The source says: Bruton's Tyrosine Kinase (Btk) Inhibition Assay
The assay is a capture of radioactive ^33P phosphorylated product through filtration. The interactions of Btk, biotinylated SH2 peptide substrate (Src homology), and ATP lead to phosphorylation of the peptide substrate. Biotinylated product is bound streptavidin sepharose beads. All bound, radiolabeled products are detected by scintillation counter.
Plates assayed are 96-well polypropylene (Greiner) and 96-well 1.2 μm hydrophilic PVDF filter plates (Millipore).
IC50 determinations are calculated from 10 data points per compound utilizing data produced from a standard 96-well plate assay template. One control compound and seven unknown inhibitors were tested on each plate and each plate was run twice. […] The control compound was staurosporine. Background was counted in the absence of peptide substrate. Total activity was determined in the presence of peptide substrate. The following protocol was used to determine Btk inhibition.
1) Sample preparation: The test compounds were diluted at half-log increments in assay buffer (imidazole, glycerol-2-phosphate, EGTA, MnCl2, MgCl2, BSA).
2) Bead preparation • a.) rinse beads by centrifuging at 500 g • b.) reconstitute the beads with PBS and EDTA to produce a 20% bead slurry
3) Pre-incubate reaction mix without substrate (assay buffer, DTT, ATP, ^33P ATP) and mix with substrate (assay buffer, DTT, ATP, ^33P ATP, peptide substrate) 30° C. for 15 min.
4) To start assay, pre-incubate 10 μL Btk in enzyme buffer (imidazole, glycerol-2-phosphate, BSA) and 10 μL of test compounds for 10 min at RT.
5) Add 30 μL reaction mixture without or with substrate to Btk and compounds.
6) Incubate 50 μL total assay mix for 30 min at 30° C.
7) Transfer 40 μL of assay to 150 μL bead slurry in filter plate to stop reaction.
8) Wash filter plate after 30 min, with following steps • a. 3×250 μL NaCl • b. 3×250 μL NaCl containing 1% phosphoric acid • c. 1×250 μL H2O
9) Dry plate for 1 h at 65° C. or overnight at RT
10) Add 50 μL microscint-20 and count ^33P cpm on scintillation counter.
Calculate percent activity from raw data in cpm percent activity=(sample−bkg)/(total activity−bkg)×100
Calculate IC50 from percent activity, using one-site dose response sigmoidal model y=A+((B−A)/(1+((x/C)^D))))

T1 sequence (Q06187 whole entry): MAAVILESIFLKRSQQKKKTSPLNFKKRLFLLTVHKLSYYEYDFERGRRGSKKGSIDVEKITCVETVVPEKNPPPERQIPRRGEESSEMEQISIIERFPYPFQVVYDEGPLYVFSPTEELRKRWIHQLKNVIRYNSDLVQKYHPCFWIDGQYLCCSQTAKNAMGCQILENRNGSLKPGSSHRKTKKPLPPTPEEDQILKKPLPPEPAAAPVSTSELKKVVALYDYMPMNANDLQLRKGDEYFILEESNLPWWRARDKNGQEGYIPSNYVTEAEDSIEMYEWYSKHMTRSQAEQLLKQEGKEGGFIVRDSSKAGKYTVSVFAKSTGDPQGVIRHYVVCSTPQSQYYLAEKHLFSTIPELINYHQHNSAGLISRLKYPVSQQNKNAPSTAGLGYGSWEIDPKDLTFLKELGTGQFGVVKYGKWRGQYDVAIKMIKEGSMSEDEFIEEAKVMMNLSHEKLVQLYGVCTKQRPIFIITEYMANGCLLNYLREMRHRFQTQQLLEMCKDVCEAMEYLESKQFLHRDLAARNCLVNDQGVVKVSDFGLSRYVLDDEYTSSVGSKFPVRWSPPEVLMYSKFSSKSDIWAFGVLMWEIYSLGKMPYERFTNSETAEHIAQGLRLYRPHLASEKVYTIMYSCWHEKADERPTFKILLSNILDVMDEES

On to `Cn1nc(-c2cccc(NC(=O)c3ccc(C(C)(C)C)cc3)c2)cc(Nc2ccc(C(=O)N3CCOCC3)cn2)c1=O` [Compound I-25], for which the melting point (usually the temperature of the solid-liquid transition) is 229 to 230 °C. The concentration for half-maximal inhibition (IC50) (commonly the concentration that inhibits the measured activity by half) in series [1] (Table I pyridazinones) stood at 120 nM.
In turn, `Cc1c(NC(=O)c2ccc(C(C)(C)C)cc2)cccc1-c1cc(NC(=O)NC(C)C)c(=O)n(C)c1` [II-6] came in with a melting point of 185 to 186 °C. Besides, the half-inhibitory concentration (IC50) in series [1] (Table II pyridinones) turned out to be 308 nM.
`Cc1c(NC(=O)c2ccc(C(C)(C)C)cc2)cccc1-c1cc(Nc2ccc(C(=O)N3CCN(C)CC3)cn2)c(=O)n(C)n1` [Compound I-2]: the melting point fell in the range of 158 to 160 °C. The compound also had a 50% inhibitory concentration (IC50) in series [1] (Table I pyridazinones) of 14 nM.
`Cn1nc(-c2cccc(CC(=O)NCCC(C)(C)C)c2)cc(Nc2ccc(C(=O)N3CCOCC3)cn2)c1=O` [Compound I-43] returned a melting point of 138 to 139 °C. Besides, in series [1] (Table I pyridazinones), the 50% inhibitory concentration (IC50) came to 6290 nM.
For `Cc1c(NC(=O)c2ccc(C(C)(C)C)cc2)cccc1-c1cc(Nc2ccnc(N3CCCC3)n2)c(=O)n(C)n1` [Compound I-21], in that order: 193 to 195 °C and 354 nM.
On to `CNC(=O)Nc1cc(-c2cccc(CC(=O)N3CC(OC(C)(C)C)C3)c2)cn(C)c1=O` [II-29, 1-(5-{3-[2-(3-tert-Butoxy-azetidin-1-yl)-2-oxo-ethyl]-phenyl}-1-methyl-2-oxo-1,2-dihydro-pyridin-3-yl)-3-methyl-urea], for which the melting point lay within 125 to 126 °C. Also, 1400 nM corresponded to half-maximal inhibition in series [1] (Table II pyridinones) (IC50).
In the case of `CNC(=O)Nc1cc(-c2cccc(NC(=O)c3ccc(C(C)(C)C)cc3)c2C)nn(C)c1=O` [Compound I-23, 4-tert-Butyl-N-{2-methyl-3-[1-methyl-5-(3-methyl-ureido)-6-oxo-1,6-dihydro-pyridazin-3-yl]-phenyl}-benzamide], the melting point is 287 to 288 °C. The compound further registered an IC50 in series [1] (Table I pyridazinones) of 101 nM.
In turn, `Cc1c(NC(=O)c2ccc(C(C)(C)C)cc2)cccc1-c1cc(NC(=O)NCCO)c(=O)n(C)c1` [II-18] had a melting point of 220 to 221 °C. For the same compound, in series [1] (Table II pyridinones), half-maximal inhibition (IC50) required 38 nM.
Turning to `CC(C)N1CCN(C(=O)Cc2cccc(-c3cc(Nc4ccc(C(=O)N5CCOCC5)cn4)c(=O)n(C)n3)c2)CC1` [Compound I-41], the melting point lay within 209 to 210 °C. In series [1] (Table I pyridazinones), this compound showed an IC50 of 6250 nM.
Turning to `CNC(=O)Nc1cc(-c2cccc(CC(=O)N3Cc4ccccc4C3)c2)cn(C)c1=O` [II-45], the melting point was in the range of 251 to 252 °C. Besides, in series [1] (Table II pyridinones), the concentration for half-maximal inhibition (IC50) came out at 1560 nM.
Turning to `COc1cc(C(C)(C)C)ccc1C(=O)Nc1cccc(-c2cc(Nc3ccc(C(=O)N4CCOCC4)cn3)c(=O)n(C)n2)c1C` [Compound I-7], the melting point was 156.5 to 157 °C. In addition, the IC50 in series [1] (Table I pyridazinones) came to 272 nM.
For `CC(C)OC1CN(C(=O)Cc2cccc(-c3cc(Nc4ccc(C(=O)N5CCOCC5)cn4)c(=O)n(C)n3)c2)C1` [Compound I-35], in that order: 92 to 93 °C and 418 nM.
Compound `CNC(=O)Nc1cc(-c2cccc(CC(=O)N3CC(CC(C)(C)O)C3)c2)cn(C)c1=O` [II-47] came in with a melting point of 113 to 114 °C. In series [1] (Table II pyridinones), this compound gave an IC50 of 54700 nM.
`Cc1c(NC(=O)c2ccc(C(C)(C)C)cc2)cccc1-c1cc(Nc2ccnc(OCCN(C)C)n2)c(=O)n(C)n1` [Compound I-18]: the melting point fell in the range of 188 to 189 °C. Besides, the IC50 in series [1] (Table I pyridazinones) came out at 326 nM.
For `Cc1c(NC(=O)c2ccc(C(C)(C)C)cc2)cccc1-c1cc(Nc2ccnc(N3CCC(CO)C3)n2)c(=O)n(C)n1` (stereo not drawn) [Compound I-20], in that order: 210 to 211 °C and 125 nM.
The like results for `CCNC(=O)Nc1cc(-c2cccc(NC(=O)c3ccc(C(C)(C)C)cc3)c2C)nn(C)c1=O` [Compound I-27] were, in that order, 278 to 279 °C and 122 nM.
For the compound `Cc1c(NC(=O)c2ccc(C(C)(C)C)cc2)cccc1-c1cc(Nc2ccccn2)c(=O)n(C)n1` [Compound I-3], the melting point lay within 248.5 to 249.3 °C. For the same compound, the IC50 in series [1] (Table I pyridazinones) was found to be 94 nM.
For `Cc1c(NC(=O)c2ccc(C(C)(C)C)cc2)cccc1-c1cc(Nc2ccnc(N3CCOCC3)n2)c(=O)n(C)n1` [Compound I-14], in that order: 211 to 213 °C and 249 nM.
For the compound `CNC(=O)Nc1cc(-c2cccc(CC(=O)N3CC(OC(C)C)C3)c2)cn(C)c1=O` [II-30], the melting point is 118 to 119 °C. This compound returned a 50% inhibitory concentration (IC50) in series [1] (Table II pyridinones) of 4370 nM.
For `CNC(=O)Nc1cc(-c2cccc(NC(=O)c3cc4c(s3)CCCC4)c2C)cn(C)c1=O` [II-11, 4,5,6,7-Tetrahydro-benzo[b]thiophene-2-carboxylic acid{2-methyl-3-[1-methyl-5-(3-methyl-ureido)-6-oxo-1,6-dihydro-pyridin-3-yl]-phenyl}-amide], in that order: 254 to 255 °C and 40 nM.
In turn, `Cc1c(NC(=O)c2ccc(C(C)(C)C)cc2)cccc1-c1cc(Nc2ccncn2)c(=O)n(C)n1` [Compound I-4] gave a melting point of 249 to 250 °C. In series [1] (Table I pyridazinones), this compound returned an IC50 of 208 nM.
The like results for `Cc1c(NC(=O)c2ccc(C(C)(C)C)cc2)cccc1-c1cc(Nc2ccnc(N3CCN(C)CC3)n2)c(=O)n(C)n1` [Compound I-11] were, in that order, 220 to 222 °C and 78 nM.
For `COc1cc(C(C)(C)C)ccc1C(=O)Nc1cccc(-c2cc(Nc3ccc(C(=O)N4CCOCC4)cn3)c(=O)n(C)n2)c1` [Compound I-30], in that order: 216 to 217 °C and 59 nM.
For the compound `Cc1c(NC(=O)c2ccc(C(C)(C)C)cc2)cccc1-c1cc(NC(=O)NCc2ccccc2)c(=O)n(C)c1` [II-9], the melting point is 169 to 170 °C. The compound further showed an IC50 in series [1] (Table II pyridinones) of 1240 nM.
The compound `Cc1c(NC(=O)c2ccc(C(C)(C)C)cc2)cccc1-c1cc(Nc2ccc(C(=O)N3CCOCC3)cn2)c(=O)n(C)n1` [Compound I-1, 4-tert-Butyl-N-(2-methyl-3-{1-methyl-5-[5-(morpholine-4-carbonyl)-pyridin-2-ylamino]-1,6-oxo-dihydro-pyridazin-3-yl}-phenyl)-benzamide] had a melting point of 148 to 150 °C. In addition, the IC50 in series [1] (Table I pyridazinones) was less than 10 nM.
In turn, `Cn1nc(-c2cccc(CC(=O)N3Cc4ccccc4C3)c2)cc(Nc2ccc(C(=O)N3CCOCC3)cn2)c1=O` [Compound I-40] had a melting point of 179 to 180 °C. Further, in series [1] (Table I pyridazinones), the IC50 came to 680 nM.
Take `Cc1c(NC(=O)c2ccc(C(C)(C)O)cc2)cccc1-c1cc(Nc2ccc(C(=O)N3CCN(C)CC3)cn2)c(=O)n(C)n1` [Compound I-5]: the melting point lay in the range of 167.5 to 168.5 °C. Inhibition in series [1] (Table I pyridazinones) was half-maximal at 122 nM (IC50).
For `CSc1nccc(Nc2cc(-c3cccc(NC(=O)c4ccc(C(C)(C)C)cc4)c3C)nn(C)c2=O)n1` [Compound I-12], in that order: 224 to 225 °C and 51 nM.
The compound `Cn1nc(-c2cccc(CC(=O)OCCOC(C)(C)C)c2)cc(Nc2ccc(C(=O)N3CCOCC3)cn2)c1=O` [Compound I-36] returned a melting point of 80 to 81 °C. Besides, the concentration for half-maximal inhibition (IC50) in series [1] (Table I pyridazinones) turned out to be 2200 nM.
On to `Cn1nc(-c2cccc(CC(=O)N3CCC(C(C)(C)C)CC3)c2)cc(Nc2ccc(C(=O)N3CCOCC3)cn2)c1=O` [Compound I-42], for which the melting point fell in the range of 231 to 232 °C. Besides, half-maximal inhibition in series [1] (Table I pyridazinones) (IC50) required 2350 nM.
In turn, `Cc1c(NC(=O)c2ccc(C(C)(C)C)cc2)cccc1-c1cc(Nc2ccc(C(=O)N3CCOCC3)cc2)c(=O)n(C)n1` [Compound I-24] registered a melting point of 157 to 158 °C. In series [1] (Table I pyridazinones), half-maximal inhibition (IC50) was put at 110 nM.
Turning to `Cc1c(NC(=O)c2ccc(C(C)(C)C)cc2)cccc1-c1cc(NC(=O)Nc2ccccc2)c(=O)n(C)c1` [II-8], the melting point lay within 219 to 220 °C. This compound registered an IC50 in series [1] (Table II pyridinones) of 7320 nM.
The like results for `Cc1c(NC(=O)c2ccc(C(C)(C)C)cc2)cccc1-c1cc(NC(=O)NCC(F)(F)F)c(=O)n(C)c1` [II-7] were, in that order, 258 to 259 °C and 867 nM.
For `CNC(=O)Nc1cc(-c2cccc(NC(=O)c3cc4ccccc4s3)c2C)cn(C)c1=O` [II-10], in that order: 286 to 287 °C and 131 nM.
The like results for `Cc1c(NC(=O)c2ccc(C(C)(C)C)cc2)cccc1-c1cc(NC(=O)NCCN(C)C)c(=O)n(C)c1` [II-16] were, in that order, 164 to 165 °C and 129 nM.
With `Cc1c(NC(=O)c2ccc(C(C)(C)C)cc2)cccc1-c1cc(NC(=O)NCCCN(C)C)c(=O)n(C)c1` [II-22], the melting point lay in the range of 194 to 195 °C. The compound also came in with an IC50 in series [1] (Table II pyridinones) of 29 nM.
